Reference: patent US9365522B2, “Pyrazole amide derivative” (AMGEN INC., priority 2015, dated 2016)

Molecular target: T1, ligand binding domain of human ROR gamma (Homo sapiens, UniProt P51449)
T1 construct: NM_001001523; expressed in transfected cells; host or cells: HEK293T
T1 sequence (P51449 247-497 isoform P51449-2): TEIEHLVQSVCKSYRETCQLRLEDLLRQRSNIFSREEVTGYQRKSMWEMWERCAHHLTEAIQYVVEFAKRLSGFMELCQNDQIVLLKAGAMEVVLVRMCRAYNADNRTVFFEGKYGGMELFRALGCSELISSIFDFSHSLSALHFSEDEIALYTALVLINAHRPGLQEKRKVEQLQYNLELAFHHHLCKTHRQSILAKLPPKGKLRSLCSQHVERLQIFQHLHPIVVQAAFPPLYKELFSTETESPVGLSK
Test: ROR gamma reporter gene assay (GAL4-RORγ LBD luciferase, Dual-Glo)
Type: cell-based
Settings: HEK293T cells transfected with pM-ROR gamma, 8 concentrations 3.5 nM to 10.5 μM, 24 h incubation; read-out: result (pIC50, inhibition of RORγ transcriptional activity) (converted)
Method: Luciferase reporter gene assay was used to assess inhibition of RORγ transcriptional activity.
ROR gamma expression vector was prepared by inserting the ligand binding domain of human ROR gamma (amino acid 247-497 of Genbank Accession NO. NM_001001523) adjacent to the yeast GAL4 transcription factor DNA binding domain in the expression vector pM (Clontech). The resulting expression vector pM-ROR gamma was used in transfection experiments together with the pGL4 luciferase reporter plasmid (Promega) containing five copies of the UAS GAL4 recognition site and pRL-CMV plasmids (Promega) containing the constitutive CMV promoter and the renilla luciferase.
For preparing transfection reagent/DNA mixture, 1 μg pM-ROR gamma, 1 μg pGL4 5×UAS, 625 pg pRL-CMV and 6.25 μL FuGENE™ HD transfection reagent (Promega) were mixed in 0.25 mL OPTI-MEM™ (Life technologies) at room temperature. At the same time, Negative control DNA mixture was prepared by using 1 μg pM empty vector instead of pM-ROR gamma plasmid. After a fifteen minute incubation, 0.25 mL of transfection reagent/DNA mixture was added to 1,000,000 of HEK293T cells (ATCC) in 5 mL of OPTI-MEM™ containing 10% Charcoal Stripped Fetal Bovine Serum.
Transfected cells were seeded onto 384 well plate (10 μL/well) and the 7.5 nL of test compounds were added to the wells in 8 concentrations ranging from 3.5 nM to 10.5 μM. The compounds were dissolved in 100% DMSO and the final concentration of DMSO in the assay was 0.075%.
After 24 h of incubation at 37° C., 5% CO2 in a cell culture incubator, the Dual-Glo™ Luciferase Assay System was used to detect activity according to the manufacturer's instructions (Promega, Cat. No.: E2920).
Data was plotted and pIC50 values were calculated using the XLfit program (ID Business Solutions Ltd.).

SMILES | IC50 [pM]
CC(=O)Nc1cccc(Cl)c1C(=O)CN(Cc1cc(F)cc(F)c1)C(=O)c1cnn([C@H]2CC[C@H](C(=O)O)CC2)c1C(F)(F)F [Example 13, trans-4-(4-((2-(2-acetamido-6-chlorophenyl)-2-oxoethyl)(3,5-difluorobenzyl)carbamoyl)-5-(trifluoromethyl)-1H-pyrazol-1-yl)cyclohexanecarboxylic acid] | 93300
O=C(CN(Cc1cc(F)cc(F)c1)C(=O)c1cnn([C@H]2CC[C@H](C(=O)O)CC2)c1C(F)(F)F)c1c(O)cccc1Cl [Example 15, trans-4-(4-((2-(2-chloro-6-hydroxyphenyl)-2-oxoethyl)(3,5-difluorobenzyl)carbamoyl)-5-(trifluoromethyl)-1H-pyrazol-1-yl)cyclohexanecarboxylic acid] | 95500
CC1(C)CC[C@H](CN(CC(=O)c2c(Cl)cncc2Cl)C(=O)c2cnn([C@H]3CC[C@H](C(=O)O)CC3)c2C(F)(F)F)O1 [Example 16, trans-4-(4-((2-(3,5-dichloropyridin-4-yl)-2-oxoethyl)(((R)-5,5-dimethylTHF-2-yl)methyl)carbamoyl)-5-(trifluoromethyl)-1H-pyrazol-1-yl)cyclohexanecarboxylic acid] | 117000
O=C(CN(Cc1cc(F)cc(F)c1)C(=O)c1cnn([C@H]2CC[C@H](C(=O)O)CC2)c1C1CC1)c1c(Cl)cncc1Cl [Example 17, trans-4-(5-cyclopropyl-4-((2-(3,5-dichloropyridin-4-yl)-2-oxoethyl)(3,5-difluorobenzyl)carbamoyl)-1H-pyrazol-1-yl)cyclohexanecarboxylic acid] | 24500
O=C(CN(Cc1cc(F)cc(F)c1)C(=O)c1cnn([C@H]2CC[C@H](C(=O)O)CC2)c1C(F)(F)F)c1c(Cl)cc(C(F)F)cc1Cl [Example 18, trans-4-(4-((2-(2,6-dichloro-4-(difluoromethyl)phenyl)-2-oxoethyl)(3,5-difluorobenzyl)carbamoyl)-5-(trifluoromethyl)-1H-pyrazol-1-yl)cyclohexanecarboxylic acid] | 11700
CC1(O)CCC(CN(CC(=O)c2c(Cl)cncc2Cl)C(=O)c2cnn([C@H]3CC[C@H](C(=O)O)CC3)c2C(F)(F)F)CC1 (stereo partly drawn) [Example 19, trans-4-(4-((2-(3,5-dichloropyridin-4-yl)-2-oxoethyl)((4-hydroxy-4-methylcyclohexyl)methyl)carbamoyl)-5-(trifluoromethyl)-1H-pyrazol-1-yl)cyclohexanecarboxylic acid] | > 1e+07
O=C(CN(Cc1cc(F)cc(F)c1)C(=O)c1cnn([C@H]2CC[C@H](C(=O)O)CC2)c1C(F)F)c1c(Cl)cncc1Cl [Example 20, trans-4-(4-((2-(3,5-Dichloropyridin-4-yl)-2-oxoethyl)(3,5-difluorobenzyl)carbamoyl)-5-(difluoromethyl)-1H-pyrazol-1-yl)cyclohexanecarboxylic acid] | 70800
Nc1nccc(Cl)c1C(=O)CN(Cc1cc(F)cc(F)c1)C(=O)c1cnn([C@H]2CC[C@H](C(=O)O)CC2)c1C(F)(F)F [Example 21, trans-4-(4-((2-(2-amino-4-chloropyridin-3-yl)-2-oxoethyl)(3,5-difluorobenzyl)carbamoyl)-5-(trifluoromethyl)-1H-pyrazol-1-yl)cyclohexanecarboxylic acid] | > 1e+07
N#Cc1ccccc1CN(CC(=O)c1c(Cl)cncc1Cl)C(=O)c1cnn([C@H]2CC[C@H](C(=O)O)CC2)c1C(F)(F)F [Example 22, trans-4-(4-((2-cyanobenzyl)(2-(3,5-dichloropyridin-4-yl)-2-oxoethyl)carbamoyl)-5-(trifluoromethyl)-1H-pyrazol-1-yl)cyclohexanecarboxylic acid] | > 1e+07
CC1(C)CC(CN(CC(=O)c2c(Cl)cncc2Cl)C(=O)c2cnn([C@H]3CC[C@H](C(=O)O)CC3)c2C(F)(F)F)C1 [Example 23, trans-4-(4-((2-(3,5-dichloropyridin-4-yl)-2-oxoethyl)((3,3-dimethylcyclobutyl)methyl)carbamoyl)-5-(trifluoromethyl)-1H-pyrazol-1-yl)cyclohexanecarboxylic acid] | 24000
O=C(O)C1CCC(n2ncc(C(=O)N(CCc3c(Cl)cncc3Cl)Cc3ccc(F)cc3)c2C(F)(F)F)CC1 (stereo not drawn) [Example 24, 4-(4-((2-(3,5-dichloropyridin-4-yl)ethyl)(4-fluorobenzyl)carbamoyl)-5-(trifluoromethyl)-1H-pyrazol-1-yl)cyclohexanecarboxylic acid] | 166000
O=C(CN(Cc1ccc(F)cc1)C(=O)c1cnn([C@H]2CC[C@@H](C(=O)O)CC2)c1C(F)(F)F)c1c(Cl)cncc1Cl [Example 25, cis-4-(4-((2-(3,5-dichloropyridin-4-yl)-2-oxoethyl)(4-fluorobenzyl)carbamoyl)-5-(trifluoromethyl)-1H-pyrazol-1-yl)cyclohexaneca rboxylic acid] | 263000
CC(C)CN(CC(=O)c1c(Cl)cncc1Cl)C(=O)c1cnn([C@H]2CC[C@H](C(=O)O)CC2)c1C(F)(F)F [Example 26, trans-4-(4-((2-(3,5-dichloropyridin-4-yl)-2-oxoethyl)(isobutyl)carbamoyl)-5-(trifluoromethyl)-1H-pyrazol-1-yl)cyclohexanecarboxylic acid] | 282000
CC(C)(C)CN(CC(=O)c1c(Cl)cncc1Cl)C(=O)c1cnn([C@H]2CC[C@H](C(=O)O)CC2)c1C(F)(F)F [Example 27, trans-4-(4-((2-(3,5-dichloropyridin-4-yl)-2-oxoethyl)(neopentyl)carbamoyl)-5-(trifluoromethyl)-1H-pyrazol-1-yl)cyclohexanecarboxylic acid] | 56200
O=C(CN(CC1CCC1)C(=O)c1cnn([C@H]2CC[C@H](C(=O)O)CC2)c1C(F)(F)F)c1c(Cl)cncc1Cl [Example 28, trans-4-(4-((cyclobutylmethyl)(2-(3,5-dichloropyridin-4-yl)-2-oxoethyl)carbamoyl)-5-(trifluoromethyl)-1H-pyrazol-1-yl)cyclohexanecarboxylic acid] | 195000
O=C(CN(CC1CCCC1)C(=O)c1cnn([C@H]2CC[C@H](C(=O)O)CC2)c1C(F)(F)F)c1c(Cl)cncc1Cl [Example 29, trans-4-(4-((cyclopentylmethyl)(2-(3,5-dichloropyridin-4-yl)-2-oxoethyl)carbamoyl)-5-(trifluoromethyl)-1H-pyrazol-1-yl)cyclohexanecarboxylic acid] | 75900
O=C(CN(CC1CCCCC1)C(=O)c1cnn([C@H]2CC[C@H](C(=O)O)CC2)c1C(F)(F)F)c1c(Cl)cncc1Cl [Example 30, trans-4-(4-((cyclohexylmethyl)(2-(3,5-dichloropyridin-4-yl)-2-oxoethyl)carbamoyl)-5-(trifluoromethyl)-1H-pyrazol-1-yl)cyclohexanecarboxylic acid] | 46800
CC1(CN(CC(=O)c2c(Cl)cncc2Cl)C(=O)c2cnn([C@H]3CC[C@H](C(=O)O)CC3)c2C(F)(F)F)CC1 [Example 31, trans-4-(4-((2-(3,5-dichloropyridin-4-yl)-2-oxoethyl)((1-methylcyclopropyl)methyl)carbamoyl)-5-(trifluorornethyl)-1H-pyrazol-1-yl)cyclohexanecarboxylic acid] | 77600
CC(C)CCN(CC(=O)c1c(Cl)cncc1Cl)C(=O)c1cnn([C@H]2CC[C@H](C(=O)O)CC2)c1C(F)(F)F [Example 32, trans-4-(4-((2-(3,5-dichloropyridin-4-yl)-2-oxoethyl)(isopentyl)carbamoyl)-5-(trifluorornethyl)-1H-pyrazol-1-yl)cyclohexanecarboxylic acid] | 81300
CC(C)(C)CCN(CC(=O)c1c(Cl)cncc1Cl)C(=O)c1cnn([C@H]2CC[C@H](C(=O)O)CC2)c1C(F)(F)F [Example 33, trans-4-(4-((2-(3,5-dichloropyridin-4-yl)-2-oxoethyl)(3,3-dimethylbutyl)carbamoyl)-5-(trifluorornethyl)-1H-pyrazol-1-yl)cyclohexanecarboxylic acid] | 112000
O=C(CN(CCC1CC1)C(=O)c1cnn([C@H]2CC[C@H](C(=O)O)CC2)c1C(F)(F)F)c1c(Cl)cncc1Cl [Example 34, trans-4-(4-((2-cyclopropylethyl)(2-(3,5-dichloropyridin-4-yl)-2-oxoethyl)carbamoyl)-5-(trifluoromethyl)-1H-pyrazol-1-yl)cyclohexanecarboxyic acid] | 1.35e+06
